These results are taken from patent US8859581B2, “Azaheterocyclic compounds as kinase inhibitors” (Merck Patent GmbH, priority 2005, dated 2014).

The target in one data set is T1, IGF1R (Homo sapiens, UniProt P08069).
T1 construct: endogenous in cells
T1 sequence (P08069 31-1367): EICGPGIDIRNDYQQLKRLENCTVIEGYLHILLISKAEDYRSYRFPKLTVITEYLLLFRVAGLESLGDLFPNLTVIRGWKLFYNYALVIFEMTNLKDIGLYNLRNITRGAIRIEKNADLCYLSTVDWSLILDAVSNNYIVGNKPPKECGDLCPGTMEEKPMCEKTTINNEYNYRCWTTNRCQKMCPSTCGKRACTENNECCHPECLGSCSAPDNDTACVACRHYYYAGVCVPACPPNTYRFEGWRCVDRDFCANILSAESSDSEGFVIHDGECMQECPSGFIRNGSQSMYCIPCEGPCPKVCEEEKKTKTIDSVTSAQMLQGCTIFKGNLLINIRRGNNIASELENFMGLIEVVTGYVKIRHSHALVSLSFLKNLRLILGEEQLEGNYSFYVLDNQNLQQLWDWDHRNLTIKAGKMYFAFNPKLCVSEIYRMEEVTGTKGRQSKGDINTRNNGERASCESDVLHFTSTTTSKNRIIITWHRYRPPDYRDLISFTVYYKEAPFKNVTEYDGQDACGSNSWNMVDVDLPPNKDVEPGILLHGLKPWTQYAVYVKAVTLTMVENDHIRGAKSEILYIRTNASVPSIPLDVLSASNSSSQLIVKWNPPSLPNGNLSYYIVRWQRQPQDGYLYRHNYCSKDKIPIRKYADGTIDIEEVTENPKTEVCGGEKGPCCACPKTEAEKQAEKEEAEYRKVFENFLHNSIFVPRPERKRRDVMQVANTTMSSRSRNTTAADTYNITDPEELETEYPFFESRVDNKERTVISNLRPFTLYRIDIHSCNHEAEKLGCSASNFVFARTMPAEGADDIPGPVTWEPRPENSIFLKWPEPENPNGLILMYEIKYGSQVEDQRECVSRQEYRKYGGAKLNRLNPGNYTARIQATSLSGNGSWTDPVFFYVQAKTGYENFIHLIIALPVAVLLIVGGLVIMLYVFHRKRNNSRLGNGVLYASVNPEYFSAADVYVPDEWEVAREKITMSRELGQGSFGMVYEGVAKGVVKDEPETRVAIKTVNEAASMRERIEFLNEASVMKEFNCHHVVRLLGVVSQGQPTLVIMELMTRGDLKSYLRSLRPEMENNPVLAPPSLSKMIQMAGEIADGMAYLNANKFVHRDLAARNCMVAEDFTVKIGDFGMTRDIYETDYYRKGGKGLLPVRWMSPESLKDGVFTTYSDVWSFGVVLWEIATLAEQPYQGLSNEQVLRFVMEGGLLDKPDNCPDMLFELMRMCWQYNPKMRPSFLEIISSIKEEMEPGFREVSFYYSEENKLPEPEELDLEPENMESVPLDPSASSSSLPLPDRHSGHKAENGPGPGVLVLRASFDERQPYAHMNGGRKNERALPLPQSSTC
The data set is described as follows: Inhibition of IGF-1R (IC50): IGF1-stimulated IGF1R autophosphorylation in human tumour cells, Capture-ELISA or LUMINEX. As to conditions: human tumour cells expressing IGF1R (for example MCF-7 or Calu-6); 45 min pre-treatment, IGF1 stimulation 5 min; read-out: IC50 (μM), IGF1R. The format is cell-based. Here is the method: Cultivated human tumour cells which express the IGF1 receptor (IGF1R) (for example MCF-7 or Calu-6) are stimulated using human IGF1, the natural ligand of IGF1R. The stimulation induces autophosphorylation of tyrosine residues in the cytoplasmatic IGF1R domain, which triggers signal transduction cascades, which result in apoptosis inhibition and cell proliferation.
The amount of phosphorylated IGF1R is determined by a receptor-specific Capture-ELISA or an analogous LUMINEX assay. The IGF1R from cell lysates is bound to a 96-well ELISA plate or LUMINEX beads (“capturing”) by means of a specific antibody, and the tyrosine phosphorylation is detected using a biotin-labelled anti-phosphotyrosine antibody and a streptavidin peroxidase conjugate by a chemoluminescence method or by means of a fluorescence-labelled anti-phosphotyrosine antibody, In order to determine the activity of kinase inhibitors, cells are pre-treated with increasing concentrations of these compounds for 45 min and subsequently stimulated using IGF1 for 5 min. As internal control, the biological activity of the ligand IGF1 is checked and a concentration series of an IGF1R reference inhibitor measured.
For `C#CCCCCNc1ccnc2[nH]c(-c3ccc(OC)cc3)cc12` [Compound 20], the IC50 (as a rule, the concentration that gives 50% inhibition) came to 9.9 µM.
The same measure, in the same setting: next, `NCCCCn1cc(-c2cccc(OCc3ccccc3)c2)c2c(N)nccc21` [Compound 68]: 20 µM; `COc1cc(-c2cc3c(Nc4cccc(F)c4)ccnc3[nH]2)cc(OC)c1OC` [Compound 4]: 0.86 µM.
Still for that read-out and setting: with `NCCCCCn1cc(-c2cccc(OCc3ccccc3)c2)c2c(N)nccc21` [Compound 69] the figure was 5.7 µM; with `NCC1CC(n2cc(-c3cccc(OCc4ccccc4)c3)c3c(N)nccc32)C1` (stereo not drawn) [Compound 73], 0.91 µM; with `COc1cc(-c2cc3c(Nc4cccc(C#N)c4)ccnc3[nH]2)cc(OC)c1OC` [Compound 11], 1.6 µM.
The same measure, in the same setting: next, `COc1cccc(-c2cc3c(NCc4ccccc4)ccnc3[nH]2)c1` [Compound 14]: 10 µM; `NCCn1cc(-c2cccc(OCc3ccccc3)c2)c2cnccc21` [Compound 72]: 25 µM; `NCCCn1cc(-c2cccc(OCc3ccccc3)c2)c2c(N)nccc21` [Compound 71]: 4.8 µM.
For `COc1ccc(CNc2ccnc3[nH]c(-c4ccc(OC)cc4)cc23)cc1` [Compound 16], the IC50 is 11 µM.
Still for that read-out and setting: next, `COc1cc(-c2cc3c(NCCc4cccnc4)ccnc3[nH]2)cc(OC)c1OC` [Compound 9]: 1.2 µM.
As for `COc1cc(-c2cc3c(NCc4cccnc4)ccnc3[nH]2)cc(OC)c1OC` [Compound 8], the IC50 worked out at 0.93 µM.
On the same count and under the same terms, with `COc1ccc(Nc2ccnc3[nH]c(-c4cc(OC)c(OC)c(OC)c4)cc23)cc1N1CCN(C)CC1` [Compound 3] the figure was 0.99 µM.

Tested on in the next data set: not given
Experiment: not given
Details: not given
`COc1cc(-c2cc3c(Nc4cccc(F)c4)ccnc3[nH]2)cc(OC)c1OC` [Compound 4]: the melting point (commonly the temperature of the solid-liquid transition) is 80 to 81 °C.
On to `NCCCCCn1cc(-c2cccc(OCc3ccccc3)c2)c2c(N)nccc21` [Compound 69], for which the melting point is 75 to 78 °C.
